Test results published in the NIST ThermoML archive (doi:10.1016/j.jct.2018.07.020).
Several values for one entry are separate records, joined by “and”; a condition that tells them apart may be missing. Equal values may be shown once. Numbers after ± are expanded uncertainties.

What was measured:
[1] = for vapor or sublimation pressure: Transpiration method; for Normal melting temperature: DTA
[2] = Molar enthalpy of transition or fusion; conditions: Crystal; DSC
[3] = Boiling temperature at pressure P; conditions: Liquid, Distillation

Cc1cc[nH]n1 [3-methylpyrazole]
[1], Liquid
Conditions	vapor or sublimation pressure [kPa]
306.3 K	0.0252 ± 0.0017
308.7 K	0.0308 ± 0.002
311.2 K	0.0369 ± 0.0023
313.8 K	0.0443 ± 0.0028
316.3 K	0.0568 ± 0.0036
318.2 K	0.063 ± 0.004
321.2 K	0.0821 ± 0.0053
323.8 K	0.0978 ± 0.0062
326.2 K	0.1165 ± 0.0073
328.8 K	0.142 ± 0.009
333.2 K	0.1924 ± 0.012

Cc1cc(C)n(C)n1 [1,3,5-trimethylpyrazole]
[1]
Conditions	vapor or sublimation pressure
282 K, Crystal	0.0479 ± 0.0031 kPa
284 K, Crystal	0.0583 ± 0.0039 kPa
287 K, Crystal	0.0816 ± 0.0054 kPa
288.7 K, Crystal	0.0998 ± 0.0065 kPa
291.7 K, Crystal	0.1348 ± 0.0087 kPa
293.8 K, Crystal	0.1707 ± 0.011 kPa
296.7 K, Crystal	0.2266 ± 0.015 kPa
298.7 K, Crystal	0.2751 ± 0.018 kPa and 0.2814 ± 0.018 kPa
301.7 K, Crystal	0.376 ± 0.024 kPa
301.9 K, Crystal	0.3776 ± 0.024 kPa
303 K, Crystal	0.4153 ± 0.026 kPa
303.9 K, Crystal	0.4496 ± 0.029 kPa
306.8 K, Crystal	0.5927 ± 0.038 kPa
315.6 K, Liquid	0.934 ± 0.058 kPa
320.8 K, Liquid	1.297 ± 0.081 kPa
325.7 K, Liquid	1.793 ± 0.11 kPa
326.4 K, Liquid	1.878 ± 0.12 kPa
330.5 K, Liquid	2.376 ± 0.15 kPa
331.4 K, Liquid	2.585 ± 0.16 kPa
334.1 K, Liquid	2.995 ± 0.19 kPa
336 K, Liquid	3.202 ± 0.23 kPa
336.4 K, Liquid	3.436 ± 0.24 kPa
338.9 K, Liquid	3.803 ± 0.24 kPa
341.4 K, Liquid	4.545 ± 0.28 kPa
343.4 K, Liquid	4.993 ± 0.31 kPa
346.4 K, Liquid	5.866 ± 0.36 kPa

Conditions	Normal melting temperature [°C]
[1], Crystal	39.4 ± 1.1

Conditions	Molar enthalpy of transition or fusion [kcal/mol]
[2]	4.21 ± 0.215

Cc1cn[nH]c1 [4-methylpyrazole]
[1], Liquid
Conditions	vapor or sublimation pressure [kPa]
296 K	0.0098 ± 0.0007
301 K	0.0149 ± 0.001
305.9 K	0.0226 ± 0.0015
310.8 K	0.0339 ± 0.0022
315.8 K	0.0494 ± 0.0032
320.9 K	0.0719 ± 0.0045
325.7 K	0.099 ± 0.0063
330.6 K	0.1457 ± 0.0093
335.6 K	0.2071 ± 0.013
340.6 K	0.2879 ± 0.018

Cn1cccn1 [1-methyl-1H-pyrazole]
[1], Liquid
Conditions	vapor or sublimation pressure [kPa]
273.4 K	0.3007 ± 0.019
276.4 K	0.3722 ± 0.023
277.2 K	0.3818 ± 0.024
278.7 K	0.4304 ± 0.027
281.6 K	0.5225 ± 0.033
281.8 K	0.5148 ± 0.032
283.3 K	0.5843 ± 0.037
284.6 K	0.6386 ± 0.04
286.5 K	0.7077 ± 0.044
287.8 K	0.7821 ± 0.049
288.3 K	0.8074 ± 0.051
290.5 K	0.9287 ± 0.058
291.4 K	0.9834 ± 0.062
292.5 K	1.077 ± 0.068
294.4 K	1.195 ± 0.075
296.5 K	1.365 ± 0.085
297.4 K	1.456 ± 0.09
298.8 K	1.576 ± 0.098
302.4 K	1.989 ± 0.12
304.7 K	2.313 ± 0.14
306.6 K	2.528 ± 0.16
308.2 K	2.753 ± 0.17

c1cn[nH]c1 [1H-pyrazole]
[1], Crystal
Conditions	vapor or sublimation pressure [kPa]
308.4 K	0.0499 ± 0.0033
310.8 K	0.0628 ± 0.0041
313.4 K	0.08 ± 0.0051
315.8 K	0.1 ± 0.0064
318.2 K	0.1258 ± 0.0082
323.3 K	0.189 ± 0.012
328.3 K	0.287 ± 0.018
330.9 K	0.3495 ± 0.022
333.3 K	0.4255 ± 0.027
335.8 K	0.5187 ± 0.033
338.3 K	0.6278 ± 0.039

c1ccc(Cn2cccn2)cc1 [1-benzylpyrazole]
[1], Liquid
Conditions	vapor or sublimation pressure
298.2 K	0.00147 ± 0.00011 kPa
310.2 K	0.0043 ± 0.00027 kPa
314.2 K	0.00615 ± 0.00044 kPa
318.2 K	0.00882 ± 0.00061 kPa
322.2 K	0.0119 ± 0.0008 kPa
326.2 K	0.0166 ± 0.001 kPa and 0.0168 ± 0.001 kPa
330.2 K	0.0225 ± 0.0015 kPa
334.2 K	0.0311 ± 0.002 kPa
338.2 K	0.0421 ± 0.0027 kPa
342.2 K	0.0559 ± 0.0035 kPa
346.2 K	0.0713 ± 0.0045 kPa
350.2 K	0.0969 ± 0.006 kPa
354.2 K	0.1228 ± 0.0077 kPa
358.2 K	0.159 ± 0.0099 kPa

Conditions	Boiling temperature at pressure P [°C]
[3], 0.6 kPa	109 ± 5

Cc1cc(C)[nH]n1 [3,5-dimethylpyrazole]
[1], Crystal
Conditions	vapor or sublimation pressure [kPa]
323.3 K	0.0136 ± 0.001
325.9 K	0.0179 ± 0.0013
326.3 K	0.019 ± 0.0013
328.3 K	0.0224 ± 0.0015
330.3 K	0.028 ± 0.0018
333.3 K	0.0361 ± 0.0023
333.5 K	0.0368 ± 0.0023
336.3 K	0.0473 ± 0.003
338.2 K	0.0538 ± 0.0036
343.3 K	0.0846 ± 0.0053
345.7 K	0.1033 ± 0.0066
348.3 K	0.1257 ± 0.0081
350.7 K	0.1591 ± 0.01
350.8 K	0.1585 ± 0.01
353.2 K	0.1955 ± 0.012
354.3 K	0.2107 ± 0.013
356.4 K	0.2524 ± 0.016

Conditions	Normal melting temperature [°C]
[1], Crystal	109.1 ± 1.1

Conditions	Molar enthalpy of transition or fusion [kcal/mol]
[2]	3.85 ± 0.12

c1ccc(-n2cccn2)cc1 [1-phenylpyrazole]
[1], Liquid
Conditions	vapor or sublimation pressure [kPa]
294.2 K	0.00258 ± 0.00018
295.2 K	0.00284 ± 0.00019
297.2 K	0.00324 ± 0.00022
303.2 K	0.00556 ± 0.00039
309.1 K	0.00913 ± 0.00061
315 K	0.01461 ± 0.00096
320.9 K	0.02221 ± 0.0014
327 K	0.03352 ± 0.0022
332.8 K	0.05146 ± 0.0033
338.9 K	0.07723 ± 0.0049
344.9 K	0.1082 ± 0.0068
350.8 K	0.1589 ± 0.01
354.8 K	0.2072 ± 0.013
360.8 K	0.2918 ± 0.018

c1ccc2[nH]ncc2c1 [1,2-diazaindene]
[1], Crystal
Conditions	vapor or sublimation pressure
323.3 K	0.00069 ± 5e-05 kPa
326.3 K	0.00098 ± 7e-05 kPa
330.3 K	0.00152 ± 0.0001 kPa
331.3 K	0.00161 ± 0.00012 kPa
336.3 K	0.00272 ± 0.00018 kPa
338.3 K	0.00329 ± 0.00023 kPa
341.3 K	0.00443 ± 0.0003 kPa
343.3 K	0.00515 ± 0.00037 kPa and 0.00524 ± 0.00039 kPa
345.2 K	0.00661 ± 0.00047 kPa
346.3 K	0.00723 ± 0.0005 kPa
348.3 K	0.00826 ± 0.00057 kPa
350.3 K	0.01023 ± 0.0007 kPa
353.2 K	0.01343 ± 0.0009 kPa
356.2 K	0.01763 ± 0.0012 kPa
358.2 K	0.0211 ± 0.0014 kPa
361.2 K	0.02725 ± 0.0018 kPa

CCn1cccn1 [1-ethylpyrazole]
[1], Liquid
Conditions	vapor or sublimation pressure
275.2 K	0.1828 ± 0.012 kPa and 0.1776 ± 0.011 kPa
279.2 K	0.2485 ± 0.015 kPa
280.2 K	0.2616 ± 0.017 kPa
283.2 K	0.3347 ± 0.021 kPa
285.2 K	0.3759 ± 0.024 kPa
287.2 K	0.4482 ± 0.028 kPa
290.2 K	0.5448 ± 0.034 kPa
291.2 K	0.5877 ± 0.037 kPa
294.2 K	0.7128 ± 0.044 kPa
295.2 K	0.7543 ± 0.048 kPa
298.2 K	0.9478 ± 0.059 kPa
300.2 K	1.073 ± 0.067 kPa
302.2 K	1.237 ± 0.077 kPa
303.2 K	1.3 ± 0.082 kPa
305.2 K	1.539 ± 0.097 kPa
306.2 K	1.63 ± 0.1 kPa
311.2 K	2.194 ± 0.14 kPa

Conditions	Boiling temperature at pressure P [°C]
[3], 7.2 kPa	60 ± 4
